Experiments:
[1] = tested on: differentiated Caco-2 cell monolayer; experiment: Caco-2 cell permeability assay (efflux ratio); type: in vitro ADME, human; conditions: Papp B to A/Papp A to AB
Protocol: (§1) The permeability of the test compounds was determined with a Caco-2 cell permeability assay according to Hubatsch I. et al (Nat. Protoc. 2007, 2 (9), 2111-2119).
(§2) The Caco-2 cell line is a continuous cell of heterogeneous human epithelial colorectal adenocarcinoma cells. When cultured as a confluent monolayer on a permeable support such as a cell culture insert filter, the cells differentiate to form a polarized epithelial cell monolayer that provides a physical and biochemical barrier to the passage of ions and small molecules. In form of the confluent monolayer, the Caco-2 cells serve in the pharmaceutical industry as a well established in vitro model of the human small intestinal mucosa to predict the absorption of orally administered drugs. Assessing transport in both directions (apical to basolateral (A-B) and basolateral to apical (B-A)) across the cell monolayer enables an efflux ratio to be determined which provides an indicator as to whether a compound undergoes active efflux. […] As will be appreciated, active efflux substantially compromises oral bioavailability.

[2] = Caco-2 cell permeability assay (efflux ratio); type: in vitro ADME, human; conditions: human, Caco-2, Papp B to A/Papp A to AB, differentiated Caco-2 cell monolayer; read-out: Caco-2 BA/AB (efflux ratio)
Protocol: as §1, §2

[3] = metabolic stability assay in rat liver microsomes; type: in vitro ADME; conditions: for microsomal CLint at 1 μM: pH 7.4, male Wistar rat liver microsomes, 0.5 mg protein/mL, 1 μM test compound, NADPH
Protocol: Hepatic clearance is the most important drug elimination mechanism in the body and many marketed compounds are cleared by hepatic cytochrome P450-mediated metabolism. The excretion or elimination property of the test compounds was determined with a metabolic stability assay according to Obach R S (Drug Metab. Dispos. 1999, 27(11), 1350-1359).
Assays were performed in 96-deepwell-plates using liver microsomes pooled from male Wistar rats (Corning). Rat liver microsomal incubations were conducted in duplicate and incubation mixtures consisted of liver microsomes (0.5 mg microsomal protein/mL), test compound (1 μM), MgCl2 (2 mM), and NADPH (1 mM) in a total volume of 0.7 ml sodium phosphate buffer (100 mM, pH 7.4). Reactions were commenced with the addition of NADPH and shaken on a horizontal shaker with a fitted heating block at 37° C. At t=0 min and the time points: 10 min, 30 min and 60 min; aliquots (70 μL) were removed from the incubations and added to 140 μl termination mixtures. Termination mixtures consisted of acetonitrile supplemented with diazepam, diclofenac and griseofulvin as internal analytical standards. The quenched samples were processed by mixing and centrifugation (2,200×g, 5 minutes). The particle free supernatant was diluted 1+1 with deionised water and subsequently subjected to LC-MS for quantitative bioanalysis in terms of test compound depletion (pump flow rate: 600 μL/min; Kinetex Phenyl-Hexyl analytical column 2.6 μm, 50×2.1 mm (Phenomenex, Germany)). Incubations containing verapamil at a concentration of 1 μM were used as high clearance positive control (PC; n=2), and incubations without NADPH (70 μl phosphate buffer (supplemented with 2 mM MgCl2) instead of 70 μL NADPH solution), in order to verify that any apparent loss of test item in the assay incubation was due to metabolism, were used as negative control (NC; n=2).
Clint data allow to predict the hepatic clearance in vivo, or, in other words, can be used as an indicator for the half life of a compound in vivo and its oral bioavailability. Highly cleared compounds are generally considered to be unfavourable as they are rapidly cleared in vivo resulting in a short duration of action. Said another way, a lower in vitro intrinsic clearance is usually indicative of a longer half life in vivo and of a better oral bioavailability.

[4] = target: T1, human bradykinin B2 receptor (hB2R) (Homo sapiens, UniProt P30411); experiment: cell-based human bradykinin B2 receptor calcium mobilization (hB2R-CaM) assay; conditions: for IC50: HTS041C cells, bradykinin at EC80, calcium mobilization, read-out: IC50-value towards human bradykinin B2 receptor (hB2R)
T1 sequence (P30411 1-391): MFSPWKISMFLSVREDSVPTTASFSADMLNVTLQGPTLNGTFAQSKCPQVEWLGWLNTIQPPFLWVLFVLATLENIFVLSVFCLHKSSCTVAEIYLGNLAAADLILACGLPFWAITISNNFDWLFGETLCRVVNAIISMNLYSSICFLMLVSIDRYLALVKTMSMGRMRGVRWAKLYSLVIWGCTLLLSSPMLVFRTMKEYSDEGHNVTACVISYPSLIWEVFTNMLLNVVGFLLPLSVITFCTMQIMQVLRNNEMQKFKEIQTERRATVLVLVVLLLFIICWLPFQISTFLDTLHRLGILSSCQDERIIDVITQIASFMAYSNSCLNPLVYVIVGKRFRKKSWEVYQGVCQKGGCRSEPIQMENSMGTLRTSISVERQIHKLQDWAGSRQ
Procedure, shortened: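 HTS041C cells stably expressing hB2R were serum-reduced, loaded with Calcium 6 dye and pre-incubated with compound (8-point, n=2, 0.1% DMSO) for 25 min at 37° C. Bradykinin was then added at EC80. IC50 came from a 4-parameter logistic fit of the max-min fluorescence signal (485/525 nm).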

| Caco-2 BA/AB (efflux ratio) [1] | efflux ratio [2] | microsomal CLint at 1 μM [3] [µL/min/mg] | IC50 [4] [nM] | fold lower Clint as compared to Comparative Compound No. 171 ([3]; versus Comparative Compound No. 171) [fold] | fold lower Clint as compared to Comparative Compound No. 174 ([3]; versus Comparative Compound No. 174) [fold] | fold improvement of relative IC50 as compared to Comparative Compound No. 169 ([4]; versus Comparative Compound No. 169) [fold] | fold improvement of relative IC50 as compared to Comparative Compound No. 172 ([4]; versus Comparative Compound No. 172) [fold] | SMILES |
| --- | --- | --- | --- | --- | --- | --- | --- | --- |
|  | 1.3 | 135 |  |  |  |  |  | Cc1cc(-c2ncnn2C)c2cccc(OCc3c(Cl)cccc3C(C)NC(=O)COC(F)F)c2n1 (stereo not shown) [compound 174, reference compound] |
|  | 1.3 | 20 | ≤ 50 |  |  |  |  | [2H][C@@](C)(NC(=O)COC(F)F)c1cc(F)cc(Cl)c1COc1cccc2c(-c3ncnn3C)cc(C)nc12 [Compound 11, (S)—N-(1-deutero-1-(3-chloro-5-fluoro-2-((2-methyl-4-(1-methyl-1H-1,2,4-triazol-5-yl)quinolin-8-yloxy)methyl)phenyl)ethyl)-2-(difluoromethoxy)acetamide] |
|  | 1 |  | ≤ 50 | 17.8 | 4.8 |  |  | Cc1cc(-c2ncnn2C)c2cccc(OCc3c(Cl)cc(F)cc3[C@H](C)NC(=O)COC(F)F)c2n1 [Compound 6, (S)—N-(1-(3-chloro-5-fluoro-2-((2-methyl-4-(1-methyl-1H-1,2,4-triazol-5-yl)quinolin-8-yloxy)methyl)phenyl)ethyl)-2-(difluoromethoxy)acetamide] |
| 2.9 | > 2 | 329 |  |  |  |  |  | Cc1cc(-n2cc(F)cn2)c2cccc(OCc3c(Cl)cncc3C(C)NC(=O)[C@@H](C)O)c2n1 (stereo partly shown) [compound 170] |
| 7.7 |  |  |  |  |  |  |  | Cc1cc(-c2ncnn2C)c2cccc(OCc3c(Cl)cncc3C(C)NC(=O)COC(F)F)c2n1 (stereo not shown) [compound 171] |

The next lines start with the molecule.

| SMILES | Caco-2 BA/AB (efflux ratio) [1] | efflux ratio [2] | microsomal CLint at 1 μM [3] [µL/min/mg] | IC50 [4] [nM] | fold lower Clint as compared to Comparative Compound No. 171 ([3]; versus Comparative Compound No. 171) [fold] | fold lower Clint as compared to Comparative Compound No. 174 ([3]; versus Comparative Compound No. 174) [fold] | fold improvement of relative IC50 as compared to Comparative Compound No. 169 ([4]; versus Comparative Compound No. 169) [fold] | fold improvement of relative IC50 as compared to Comparative Compound No. 172 ([4]; versus Comparative Compound No. 172) [fold] |
| --- | --- | --- | --- | --- | --- | --- | --- | --- |
| Cc1cc(-n2cc(F)cn2)c2cccc(OCc3c(Cl)cncc3C(C)NC(=O)[C@H](C)O)c2n1 (stereo partly shown) [compound 169] | 3.4 | > 2 | 427 |  |  |  |  |  |
| Cc1cc(-n2cc(F)cn2)c2cccc(OCc3c(Cl)cccc3C(C)NC(=O)[C@H](C)O)c2n1 (stereo partly shown) [compound 172, reference compound] |  | 1.6 | 56 |  |  |  |  |  |
| Cc1cc(-n2cc(F)cn2)c2cccc(OCc3c(Cl)cccc3C(C)NC(=O)[C@@H](C)O)c2n1 (stereo partly shown) [compound 173, reference compound] |  | 1.1 | 132 |  |  |  |  |  |
| Cc1cc(-n2cc(F)cn2)c2cccc(OCc3c(Cl)cc(F)cc3[C@H](C)NC(=O)[C@H](C)O)c2n1 [Compound 13] |  | 0.6 | 13 | 251 to 1000 |  |  | 7.5 | 3.8 |
| Cc1cc(-n2cc(F)cn2)c2cccc(OCc3c(Cl)cc(F)cc3[C@H](C)NC(=O)[C@@H](C)O)c2n1 [Compound 1, (R)—N—((S)-1-(3-chloro-5-fluoro-2-((4-(4-fluoro-1H-pyrazol-1-yl)-2-methylquinolin-8-yloxy)methyl)phenyl)ethyl)-2-hydroxypropanamide] |  | 0.7 | 56 | 51 to 250 |  |  |  |  |
